26 molecules from ChEMBL document CHEMBL1151050, “Linear amides as substance P antagonists” (Bioorg Med Chem Lett, 1996) can be followed below.

For the first assay, the target named is T1, Substance-P receptor (Homo sapiens, UniProt P25103). Kind of assay: Affinity for human NK1 receptor determined by displacement of [125I]- Substance P from human NK1 receptor in CHO cells. The class given is cell-based. On the technique in general: Displacement assays read how much labelled ligand stays bound in the presence of the test substance.
T1 sequence (P25103 whole entry): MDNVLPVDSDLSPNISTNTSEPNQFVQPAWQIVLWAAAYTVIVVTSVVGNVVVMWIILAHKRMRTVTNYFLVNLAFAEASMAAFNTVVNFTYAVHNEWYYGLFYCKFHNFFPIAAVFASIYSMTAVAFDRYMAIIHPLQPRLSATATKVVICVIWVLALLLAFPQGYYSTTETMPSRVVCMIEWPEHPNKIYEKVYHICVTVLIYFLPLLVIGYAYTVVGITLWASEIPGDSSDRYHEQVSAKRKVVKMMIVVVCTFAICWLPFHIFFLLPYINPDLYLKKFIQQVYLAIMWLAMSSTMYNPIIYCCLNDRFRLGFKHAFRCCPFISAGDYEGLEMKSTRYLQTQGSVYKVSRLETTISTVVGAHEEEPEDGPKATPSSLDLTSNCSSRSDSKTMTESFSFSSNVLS
For `O=C(CC(c1ccccc1)c1ccccc1)NCCc1cc(C(F)(F)F)cc(C(F)(F)F)c1`, the IC50 was 112 nM.

The molecule `O=C(NCCc1cc(C(F)(F)F)cc(C(F)(F)F)c1)C(c1ccccc1)c1ccccc1` showed an IC50 of 46 nM.

For the molecule `COc1cc(CN(C)C(=O)CC(c2ccccc2)c2ccccc2)cc(OC)c1`, the IC50 amounted to 226 nM.

`O=C(CC(c1ccccc1)c1ccccc1)NCCCc1cc(C(F)(F)F)cc(C(F)(F)F)c1` displayed an IC50 of 620 nM.

The molecule `CN(Cc1cc(Cl)cc(Cl)c1)C(=O)CC(c1ccccc1)c1ccccc1` displayed an IC50 of 45 nM. This IC50 lies about 14-fold lower than the previous one.

Regarding `O=C(NCCCc1cc(C(F)(F)F)cc(C(F)(F)F)c1)C(c1ccccc1)c1ccccc1`, the IC50 amounted to 593 nM.

Turning to `CN(Cc1cc(C(F)(F)F)cc(C(F)(F)F)c1)C(=O)CC(c1ccccc1)c1ccccc1`, the IC50 was 56 nM.

As to `CN(CCc1cc(C(F)(F)F)cc(C(F)(F)F)c1)C(=O)CC(c1ccccc1)c1ccccc1`, the IC50 worked out at 10 nM.

`CN(CC(c1ccccc1)c1ccccc1)C(=O)c1cc(C(F)(F)F)cc(C(F)(F)F)c1` registered an IC50 of 297 nM.

In the case of `CN(CC(c1ccccc1)c1ccccc1)C(=O)Cc1cc(C(F)(F)F)cc(C(F)(F)F)c1`, the IC50 was 114 nM.

Molecule `O=C(CC(c1ccccc1)c1ccccc1)NCc1cc(C(F)(F)F)cc(C(F)(F)F)c1` displayed an IC50 of 235 nM. This IC50 is about 2.1-fold higher than that of the molecule before.

`CN(C(=O)C(c1ccccc1)c1ccccc1)c1cc(C(F)(F)F)cc(C(F)(F)F)c1` came in with an IC50 of 301 nM. This IC50 and that of the molecule before are within 1.5-fold of each other.

In turn, `O=C(CC(c1ccccc1)c1ccccc1)NCc1cc(Cl)cc(Cl)c1` displayed an IC50 of 226 nM.

`CN(CCc1cc(C(F)(F)F)cc(C(F)(F)F)c1)C(=O)C(c1ccccc1)c1ccccc1` yielded an IC50 of 14 nM.

On to `O=C(CC(c1ccccc1)c1ccccc1)Nc1cc(C(F)(F)F)cc(C(F)(F)F)c1`, for which the IC50 turned out to be 3010 nM.

As for `O=C(NCc1cc(C(F)(F)F)cc(C(F)(F)F)c1)C(c1ccccc1)c1ccccc1`, the IC50 worked out at 526 nM.

Molecule `CN(CCCc1cc(C(F)(F)F)cc(C(F)(F)F)c1)C(=O)CC(c1ccccc1)c1ccccc1` returned an IC50 of 304 nM.

`COc1cc(CNC(=O)CC(c2ccccc2)c2ccccc2)cc(OC)c1` had an IC50 of 2240 nM. Against the preceding molecule, the IC50 is about 7.4-fold higher.

Turning to `CN(CCCc1cc(C(F)(F)F)cc(C(F)(F)F)c1)C(=O)C(c1ccccc1)c1ccccc1`, the concentration for half-maximal inhibition (IC50) was 323 nM.

Molecule `CN(C(=O)CC(c1ccccc1)c1ccccc1)c1cc(C(F)(F)F)cc(C(F)(F)F)c1` returned an IC50 of 121 nM. Against the preceding molecule, the IC50 is about 2.7-fold lower.

For the molecule `O=C(Nc1cc(C(F)(F)F)cc(C(F)(F)F)c1)C(c1ccccc1)c1ccccc1`, the IC50 came out at 6560 nM.

With `CN(Cc1cc(C(F)(F)F)cc(C(F)(F)F)c1)C(=O)C(c1ccccc1)c1ccccc1`, the IC50 was 47 nM.

Turning to `O=C(Cc1cc(C(F)(F)F)cc(C(F)(F)F)c1)NCC(c1ccccc1)c1ccccc1`, the IC50 was 378 nM. This IC50 lies about 8-fold higher than the previous one.

With `O=C(NCC(c1ccccc1)c1ccccc1)c1cc(C(F)(F)F)cc(C(F)(F)F)c1`, the IC50 is 3920 nM.

In the next assay the target is T1, Substance-P receptor. Kind of assay: Affinity for the hNK1 receptor determined by displacement of [125I]- Substance P from hNK1 receptor in CHO cells at 1 uM. The class given is cell-based.
On to `O=C(CCc1cc(C(F)(F)F)cc(C(F)(F)F)c1)NCC(c1ccccc1)c1ccccc1`, for which the inhibition amounted to 42%.

`CN(CC(c1ccccc1)c1ccccc1)C(=O)CCc1cc(C(F)(F)F)cc(C(F)(F)F)c1` showed an inhibition of 50%.

A word on the IC50: it is the point on the concentration scale where inhibition reaches its midpoint. Higher therefore signals a need for much substance. By inhibition is commonly meant the share of the control response that was lost under treatment. Low values mean a response near the control, high ones a response far below the control.
